Measurements reported in patent US10064861B2, “Macrocyclic pyridazinone derivatives” (Merck Patent GmbH, priority 2013, dated 2018).

How the values were obtained:
[1] = target: IRAK1 (Homo sapiens (Human), UniProt P51617); assay: IRAK1 enzymatic assay; type: biochemical; settings: His-TEV-IRAK-1, ATP 1 μM, 3 hours at 30° C.
Protocol: IRAK1 is a human purified recombinant enzyme (His-TEV-IRAK1 (194-712)) In this assay, IRAK-1 hydrolyses ATP and autophosphorylates.
Measurement of IRAK-1 inhibition is performed in streptavidin coated 384 well FlashPlate (PerkinElmer #SMP410A).
His-TEV-IRAK-1 (15 ng/well), ATP (1 μM, [^33P]ATP 0.25 μCi/well) and compounds in DMSO (range of concentrations from 20 μM to 1 nM) or controls (2% DMSO) are incubated for 3 hours at 30° C. in assay buffer: Hepes pH 7.0 50 mM, Fatty acid-free BSA 0.1%, Dithiothreitol DTT 2 mM, MgCl2 10 mM, EGTA 0.5 mM, Triton-X-100 0.01%. Kinase reaction is stopped by addition of EDTA. Supernatant is discarded, plates are washed three times with 150 mM NaCl and radioactivity is then measured in a Microbeta Trilux reader.

[2] = target: IRAK4 (Homo sapiens (Human), UniProt Q9NWZ3); assay: IRAK4 enzymatic assay; type: biochemical; settings: His-TEV-IRAK4, ATP 2 μM, STK1-biotin peptide 300 nM, 3 hours at 30° C.
Protocol: IRAK4 is a human purified recombinant enzyme (His-TEV-IRAK1 (194-712) IRAK4 hydrolyses ATP, autophosphorylates and phosphorylates a Serine/Threonine generic peptidic substrate (STK: 61ST1BLC from CisBio International based in Bagnols/Cèze FR).
Measurement of IRAK-4 inhibition is performed in streptavidin coated 384 well FlashPlate (PerkinElmer #SMP410A). His-TEV-IRAK4 (20 ng/well), ATP (2 μM, [^33P]ATP 0.25 μCi/well), STK1-biotin peptide (300 nM) and compounds in DMSO (range of concentrations from 20 μM to 1 nM) or controls (2% DMSO) are incubated for 3 hours at 30° C. in assay buffer: Hepes pH 7.0 50 mM, Fatty acid-free BSA 0.1%, Dithiothreitol DTT 2 mM, MgCl2 10 mM, EGTA 0.5 mM, Tween-20 0.01%, MnCl2 5 mM.
Kinase reaction is stopped by addition of EDTA. Supernatant is discarded, plates are washed three times with 150 mM NaCl and radioactivity is then measured in a Microbeta Trilux reader.

[3] = test system: TLR7 induced IL-6 secretion in human mononuclear cells (PBMC's); assay: TLR7 induced IL-6 in human PBMC's; type: cell-based; settings: TLR7 specific ligand 2 uM overnight, IL-6 AlphaLISA
Protocol: TLR7 Induced IL-6 in Human PBMC's
Human PBMC assay is used as one of the functional assay to monitor the activity of IRAK1 and IRAK4 small molecule inhibitors on TLR7 induced IL-6 secretion in human mononuclear cells (PBMC's). Human PBMCs are prepared from buffy coats (whole blood enriched with leukocytes and platelets) obtained from healthy volunteers used either fresh or frozen are plated in assay media (RPMI+2% P/S/L-glu+10% HI-FBS) and pre-treated with compounds in DMSO/media (range of concentrations from 25 μM to 0.4 nM) or controls (0.25% DMSO) for 30 minutes at 37° C. in assay media. Following pre-treatment with IRAK1 and IRAK4 inhibitors, PBMC's are stimulated with TLR7 specific ligand (2 uM) overnight (16-18 hrs) at 37° C. After incubation supernatant is transferred to 384 well PE AlphaPlate-384 (6005350) and IL-6 is quantified using Perkin Elmer IL-6 Alpha LISA kit (AL223C). Plates are read on an Envision® plate reader with Alpha Technology®.

Chain of IRAK4 (Q9NWZ3 whole entry): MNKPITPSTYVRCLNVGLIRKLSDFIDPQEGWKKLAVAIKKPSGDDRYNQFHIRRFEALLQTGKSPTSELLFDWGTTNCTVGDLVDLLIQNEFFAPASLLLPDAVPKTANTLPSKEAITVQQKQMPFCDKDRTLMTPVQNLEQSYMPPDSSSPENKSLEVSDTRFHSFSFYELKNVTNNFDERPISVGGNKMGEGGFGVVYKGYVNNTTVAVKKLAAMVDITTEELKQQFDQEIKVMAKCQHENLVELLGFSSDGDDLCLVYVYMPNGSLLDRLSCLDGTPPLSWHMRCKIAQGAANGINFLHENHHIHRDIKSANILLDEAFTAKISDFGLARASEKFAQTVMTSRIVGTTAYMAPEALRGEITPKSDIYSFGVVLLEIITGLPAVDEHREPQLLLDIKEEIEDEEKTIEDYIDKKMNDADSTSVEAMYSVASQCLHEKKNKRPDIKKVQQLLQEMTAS
Chain of IRAK1 (P51617 194-712): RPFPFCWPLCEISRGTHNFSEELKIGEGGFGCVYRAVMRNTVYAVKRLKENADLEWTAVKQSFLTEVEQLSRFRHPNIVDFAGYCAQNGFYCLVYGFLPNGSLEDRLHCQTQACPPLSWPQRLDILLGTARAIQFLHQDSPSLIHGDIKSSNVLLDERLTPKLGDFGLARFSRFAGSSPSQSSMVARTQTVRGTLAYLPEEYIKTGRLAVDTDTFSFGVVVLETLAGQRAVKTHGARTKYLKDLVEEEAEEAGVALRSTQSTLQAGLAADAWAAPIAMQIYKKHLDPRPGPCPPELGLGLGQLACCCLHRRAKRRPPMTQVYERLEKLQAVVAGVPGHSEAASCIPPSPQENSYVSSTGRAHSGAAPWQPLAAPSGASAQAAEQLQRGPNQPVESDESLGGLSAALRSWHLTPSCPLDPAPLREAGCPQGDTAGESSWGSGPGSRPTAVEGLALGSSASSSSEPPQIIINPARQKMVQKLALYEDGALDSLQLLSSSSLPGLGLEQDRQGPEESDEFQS

| IC50 [1] [nM] | IC50 [2] [nM] | Compound | IC50 [3] [nM] |
| --- | --- | --- | --- |
| < 100 | < 100 | O=C1Nc2nc3ccccc3n2C[C@H](O)[C@@H]2CCCN(C2)c2ccc(=O)n(n2)Cc2cccc1c2 (stereo in doubt) [Compound 32a, 25-hydroxy-1,6,14,16,23,32-hexaazahexacyclo[24.3.1.1^2,6.1^8,12.0^15,23.0^17,22]dotriaconta-2(32),3,8(31),9,11,15,17(22),18,20-nonaene-5,13-dione] | 100 to 1000 |
| < 100 | 100 to 1000 | Cc1cc(=O)n2nc1-c1cccc(c1)Cn1c(nc3ccccc31)NC(=O)c1cccc(c1)C2 [Compound 4, 28-Methyl-8,15,17,25,29-pentaazahexacyclo[23.3.1.1^2,61^19,230^8,160^9,14]hentriaconta-1(29),2(31),3,5,9(14),10,12,15,19(30),20,22,27-dodecaene-18,26-dione] |  |
| < 100 | 100 to 1000 | O=C1Nc2nc3cc(F)c(F)cc3n2Cc2cccc(c2)-c2ccc(=O)n(n2)Cc2cccc1c2 [Compound 6, 11,12-difluoro-8,15,17,25,29-pentaazahexacyclo[23.3.1.1^2,6.1^9,23.0^8,16.0^9,14]hentriaconta-1(29),2(31),3,5,9(14),10,12,15,19(30),20,22,27-dodecaene-18,26-dione] |  |
|  | < 100 | O=C1Nc2nc3ccccc3n2Cc2cncc(c2)-c2ccc(=O)n(n2)Cc2cccc1c2 [Compound 7, 4,8,15,17,25,29-hexaazahexacyclo[23.3.1.1^2,6.1^19,23.0^8,16.0^9,14]hentriaconta-1(29),2(31),3,5,9(14),10,12,15,19(30),20,22,27-dodecaene-18,26-dione] | < 100 |
| < 100 | 100 to 1000 | O=C1Nc2nc3ccccc3n2CCOc2cccc(c2)-c2ccc(=O)n(n2)Cc2cccc1c2 [Compound 9, 26-oxa-6,14,16,23,33-pentaazahexacyclo[25.3.1.12,6,1^8,12}0^15,23.0^17,22]tritriaconta-1(31),2(33),3,8,10,12(32),15,17,19,21,27,29-dodecaene-5,13-dione] |  |
| < 100 | 100 to 1000 | O=C1Nc2nc3ccccc3n2Cc2ccc(F)c(c2)-c2ccc(=O)n(n2)Cc2cccc1c2 [Compound 10, 3-Fluoro-8,15,17,25,29-pentaazahexacyclo[23.3.1.1^2,61^19,230^8,160^9,14]hentriaconta-1(29),2(31),3,5,9(14),10,12,15,19(30),20,22,27-dodecaene-18,26-dione] |  |
| < 100 | < 100 | Cc1cc(=O)n2nc1-c1cccc(c1)CCn1c(nc3ccccc31)NC(=O)c1cccc(c1)C2 [Compound 11, 3-methyl-6,14,16,23,32-pentaazahexacyclo[24.3.1.1^2,6.1^8,12.0^15,23.017,22]dotriaconta-1(30),2(32),3,8,10,12(31),15,17,19,21,26,28-dodecaene-5,13-dione] |  |
| < 100 | 100 to 1000 | O=C1Nc2nc3ccccc3n2Cc2ccc(Cl)c(c2)-c2ccc(=O)n(n2)Cc2cccc1c2 [Compound 13, 3-chloro-8,15,17,25,29-pentaazahexacyclo[23.3.1.1^2,6.1^19,23.0^8,16.0^9,14]hentriaconta-1(29),2(31),3,5,9(14),10,12,15,19(30),20,22,27-dodecaene-18,26-dione] |  |
|  |  | O=C1Nc2nc3ccccc3n2CCn2cc(cn2)-c2ccc(=O)n(n2)Cc2cccc1c2 [Compound 14, 4,6,8,15,17,25,29-heptaazahexacyclo[23.3.1.12,5.119,23.08,16.09,14]hentriaconta-1(29),2(31),3,9(14),10,12,15,19(30),20,22,27-undecaene-18,26-dione] | 100 to 1000 |
| < 100 | < 100 | COc1ccc2cc1-c1ccc(=O)n(n1)Cc1cccc(c1)C(=O)Nc1nc3ccccc3n1C2 [Compound 15, 3-methoxy-8,15,17,25,29-pentaazahexacyclo[23.3.1.1^2,6.1^19,23.0^8,16.0^9,14]hentriaconta-1(29),2(31),3,5,9(14),10,12,15,19(30),20,22,27-dodecaene-18,26-dione] |  |
| 100 to 1000 | < 100 | COc1ccc2cc1Cn1c(nc3ccccc31)NC(=O)c1cccc(c1)Cn1nc-2ccc1=O [Compound 19, 5-methoxy-8,15,17,25,29-pentaazahexacyclo[23.3.1.1^2,6.1^19,23.0^8,16.0^9,14]hentriaconta-1(29),2(31),3,5,9(14),10,12,15,19(30),20,22,27-dodecaene-18,26-dione] |  |
| < 100 | < 100 | COc1cc2nc3n(c2cc1OC)CCn1cc(cn1)-c1ccc(=O)n(n1)Cc1cccc(c1)C(=O)N3 [Compound 22] |  |
| < 100 | < 100 | NCCc1ccc2c(c1)nc1n2Cc2cccc(c2)-c2ccc(=O)n(n2)Cc2cccc(c2)C(=O)N1 [Compound 23] |  |
| < 100 | < 100 | CC1c2cccc(c2)C(=O)Nc2nc3ccccc3n2Cc2cccc(c2)-c2ccc(=O)n1n2 (stereo not drawn) [Compound 24] |  |
| < 100 | < 100 | Cc1cc(=O)n2nc1-c1cnn(c1)CCn1c(nc3ccccc31)NC(=O)c1cccc(c1)C2 [Compound 26] |  |
| < 100 | < 100 | O=C1Nc2nc3cc(CN4CCOCC4)ccc3n2Cc2cccc(c2)-c2ccc(=O)n(n2)Cc2cccc1c2 [Compound 27] |  |
| 100 to 1000 | 100 to 1000 | Cc1nn2c(C)c1-c1ccc(=O)n(n1)Cc1cccc(c1)C(=O)Nc1nc3ccccc3n1CC2 [Compound 28] |  |
| < 100 | < 100 | COc1ccc2c(c1)nc1n2Cc2cccc(c2)-c2ccc(=O)n(n2)Cc2cccc(c2)C(=O)N1 [Compound 29] |  |
| < 100 | < 100 | Cc1cc(=O)n2nc1OCCC(O)Cn1c(nc3ccccc31)NC(=O)c1cccc(c1)C2 (stereo not drawn) [Compound 30] |  |
| < 100 | 100 to 1000 | O=C1Nc2nc3cc(O)ccc3n2Cc2cccc(c2)-c2ccc(=O)n(n2)Cc2cccc1c2 [Compound 31] |  |
| < 100 | < 100 | COc1ccc2c(c1)nc1n2CCn2cc(cn2)-c2ccc(=O)n(n2)Cc2cccc(c2)C(=O)N1 [Compound 33] |  |
| < 100 | < 100 | O=C1Nc2nc3ccccc3n2C/C=C\COc2ccc(=O)n(n2)Cc2cccc1c2 [Compound 34] |  |
| < 100 | < 100 | COc1ccc2c(c1)nc1n2CC(O)CCOc2ccc(=O)n(n2)Cc2cccc(c2)C(=O)N1 (stereo not drawn) [Compound 35] |  |
| < 100 | < 100 | CC[C@H]1c2cccc(c2)C(=O)Nc2nc3ccccc3n2Cc2cccc(c2)-c2ccc(=O)n1n2 [Compound 36a, 24-ethyl-8,15,17,26,29-pentaazahexacyclo[23.3.1.1^2,6.1^19,23.0^8,16.0^9,14]hentriaconta-1(29),2(31),3,5,9(14),10,12,15,19,21,23(30),27-dodecaene-18,26-dione] |  |
| < 100 | 100 to 1000 | CC[C@@H]1c2cccc(c2)C(=O)Nc2nc3ccccc3n2Cc2cccc(c2)-c2ccc(=O)n1n2 [Compound 36b, 24-ethyl-8,15,17,26,29-pentaazahexacyclo[23.3.1.1^2,6.1^19,23.0^8,16.0^9,14]hentriaconta-1(29),2(31),3,5,9(14),10,12,15,19,21,23(30),27-dodecaene-18,26-dione] |  |
| < 100 | < 100 | COc1ccc2cc1CCn1c(nc3ccccc31)NC(=O)c1cccc(c1)Cn1nc-2ccc1=O [Compound 37] |  |
| < 100 | < 100 | O=C1Nc2nc3ccccc3n2CCc2cc(ccc2O)-c2ccc(=O)n(n2)Cc2cccc1c2 [Compound 38] |  |
